Read-outs that look alike come from different tables or passages of the source.

Here are results for twelve molecules from patent publication US8835442B2, “3-substituted 7-imino-2-thioxo-3, 7-dihydro-2H-thiazolo [4,5-di pyrimidin-6-yl—and process for preparation thereof” (Council of Scientific & Industrial Research, priority 2009, dated 2014).

For data set [1], the target named is T1, A2A receptor (Homo sapiens, UniProt P29274).
T1 construct: host or cells: HEK 293
In words: cAMP functional assay in forskolin-pretreated HEK 293 cells. Type of data set: cell-based. Particulars: 25 μM forskolin 2 h, then 100 nM compound for 24 h. Here is the method: To determine the modulation in cAMP concentrations, cells were pre-treated with Forskolin. Forskolin is commonly used to activate adenylyl cyclase, so as to raise the levels of cAMP, in the various cell physiology experiments. […] Cells were washed with ice-cold PBS (pH 7.4). Further, cells were treated with 0.1M HCl, incubated for 10 minutes and visually inspected to verify cell lysis. Lysed cells were centrifuged at 1000 rpm at room temperature and the supernatant was used directly for cAMP assay using direct cAMP assay kit. All standards and samples were run in duplicate. 50 μl of the neutralizing reagent was added into each well of 96-well microplate coated with goat anti-rabbit IgG antibody, except the total activity (TA) and blank wells. Again, 100 μl of HCl (0.1M) was added into the NSB (Non-specific bound) and the Bo (0 pmol/ml standard) Wells: 100 μl of standards 1 to 5 was pippeted into the appropriate wells. 50 μl of 0.1M HCl was added into the NSB wells, followed by 50 μl of blue conjugate (alkaline phosphatase conjugated with cAMP) into each well except the TA and blank wells. 50 μl of yellow coloured primary antibody against cAMP into each well, except the blank, TA and NSB wells. Microplate was incubated at room temperature for 2 hours on a plate shaker. Wells were washed twice with 400 μl of wash solution. 5 μl of blue conjugate was added to the TA wells, followed by the addition of 200 μl of p-nitrophenyl phosphate substrate solution to every well. Plate was again incubated for 1 hour without shaking. Reaction was stopped by adding 50 μl of stop solution to every well.
The average net O.D. bound for each standard and sample was calculated using formula; Average Net OD=Average bound OD−Average NSB OD
The binding of each pair of standard wells as a percentage of the maximum binding well (Bo) was calculated using the formula; Percent Bound=Net OD/Net Bo OD×100
Standard curve was prepared using Logit-Log Paper plot by drawing percent bound (B/Bo) versus concentration of cAMP for the standards. The concentration of the cAMP in the samples was determined by interpolation.
Binding parameters were estimated by the computerized non-linear fitting program Graph Pad (Prism 4.0). […] Data were expressed as geometric means with 95% confidence limits in parentheses. Estimation of cAMP concentrations in functional assay was carried by Student's paired t-test. P<0.05 was considered significant. All analysis was performed by using GraphPad Prism 4.0 (GraphPad Software, San Diego, USA). Results are given, as mean±S.E.M

The target in data set [2] is human A2AR (Homo sapiens, UniProt P29274). The experiment in a line: Competitive radioligand binding assay, [3H] ZM 241385, membranes of HEK 293 cells stably expressing human A2AR. Particulars: for hA1/hA2A ratio: selectivity: Ki hA1 / Ki hA2A; for selectivity over A1 adenosine receptor: A2AR versus A1R binding.
Sequence of human A2AR (P29274 whole entry): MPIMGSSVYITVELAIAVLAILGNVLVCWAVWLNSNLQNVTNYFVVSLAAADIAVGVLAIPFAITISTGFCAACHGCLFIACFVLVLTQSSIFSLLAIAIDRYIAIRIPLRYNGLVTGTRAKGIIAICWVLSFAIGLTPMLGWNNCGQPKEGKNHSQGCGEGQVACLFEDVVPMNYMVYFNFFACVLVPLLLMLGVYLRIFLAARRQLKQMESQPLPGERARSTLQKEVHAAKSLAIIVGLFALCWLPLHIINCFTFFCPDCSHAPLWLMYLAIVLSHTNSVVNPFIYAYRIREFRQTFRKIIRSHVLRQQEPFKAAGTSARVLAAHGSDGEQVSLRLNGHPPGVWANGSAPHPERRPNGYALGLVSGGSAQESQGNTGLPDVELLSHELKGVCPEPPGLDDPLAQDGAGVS
Experimental: (§1) Aliquots of membrane proteins from both A2AR and A1R were rapidly frozen and stored at −20° C.
(§2) About 10 μg of membrane protein was added to each well of multiscreen 96-well plate equipped with GF/B filters. Incubation buffer (50 mM Tris, 1 mM EDTA, pH 7.4) containing adenosine deaminase (1 U/ml) was added to each well to remove endogenous adenosine bound to the receptors and volume was adjusted to 100 μl by adding incubation buffer. Plate was incubated at 37° C. for 1 hour. […] Final volume was adjusted to 200 μl by adding incubation buffer and incubated at 26° C. for 30 minutes. Binding reaction was terminated by rapid filteration of filter plates using vacuum manifold system. Filterate (unbound radioligand) was collected in a 96-well plate laying down the filter plate. Filters were washed three times with ice-cold washing buffer (50 mM Tris-Cl; 2.5 mM MgCl2 pH 7.4). Finally, 100 μl of scintillation fluid was added to all wells of plate containing unbound filtrate as well as to the filter plate (bound radioligand) and incubated overnight at room temperature. […] DPCPX were read using β-counter.
(§3) About 10 μg of membrane protein was added to each well of a 96-well filter plate. Incubation buffer containing adenosine deaminase (1 U/ml) was added to the membrane protein and incubated at 37° C. for 1 hour, to remove endogenous adenosine. […] Filter plates were incubated at 26° C. for 30 minutes and reaction was terminated by rapid filtration of unbound radioligands. Filters containing ligand bound receptors were washed three times with ice-cold washing buffer to completely remove any unbound radioligand or receptor. Finally, 100 μl of scintillation fluid was added to each well and incubated overnight at room temperature. β-counts emitted from bound radioligands ([^3H] ZM241385 and [^3H] DPCPX) were counted using β-counter. Duplicate values of β-counts per minute at corresponding concentrations (1 pM to 1 μM) were added to the data sheet of graph pad prism 4.0. Concentration values were considered as X-values and counts per minute were considered as Y-values (in duplicate). X-values were transformed into logX and Ki value was calculated using nonlinear regression (curve fit program).
(§4) Binding parameters were estimated by the computerized non-linear fitting program Graph Pad (Prism 4.0). […] Data were expressed as geometric means with 95% confidence limits in parentheses. […] P<0.05 was considered significant. All analysis was performed by using GraphPad Prism 4.0 (GraphPad Software, San Diego, USA). Results are given, as mean±S.E.M
Data set [3] has as its target T2, human A1R (Homo sapiens, UniProt P30542).
T2 sequence (P30542 1-326): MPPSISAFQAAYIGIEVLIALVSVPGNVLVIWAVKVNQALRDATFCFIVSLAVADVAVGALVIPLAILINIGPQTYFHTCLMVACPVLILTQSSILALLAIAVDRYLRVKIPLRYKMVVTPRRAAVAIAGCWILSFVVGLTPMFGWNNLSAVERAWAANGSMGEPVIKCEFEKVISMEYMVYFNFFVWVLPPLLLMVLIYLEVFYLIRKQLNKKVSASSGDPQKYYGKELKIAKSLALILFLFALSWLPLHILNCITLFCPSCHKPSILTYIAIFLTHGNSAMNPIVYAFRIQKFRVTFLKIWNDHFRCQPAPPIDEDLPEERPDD
In words: Competitive radioligand binding assay, [3H] DPCPX, membranes of HEK 293 cells stably expressing human A1R.
Experimental: as §1, §2, §3, §4

[4] abbreviates: read-out: hA1 binding Ki ± SD, displacement of 0.75 nM [3H] DPCPX, HEK 293 membranes, test compounds 1 pM to 1 μM.
The mark [5] stands for this setting: read-out: hA2A binding Ki ± SD, displacement of 1 nM [3H] ZM 241385, HEK 293 membranes, test compounds 1 pM to 1 μM.

T1 sequence (P29274 whole entry): as the sequence (P29274 whole entry) above

`CCn1c(=S)sc2c(=N)n(NC(N)=O)cnc21` [Compound 15, (3-Ethyl-7-imino-2-thioxo-3,7-dihydro-2H-thiazolo[4,5-d]pyrimidin-6-yl)-urea]: the melting point (commonly the temperature of the solid-liquid transition) is 212 °C. Further, the cAMP concentration in data set [1] is given as 0.085 nM. Besides, in data set [2], the affinity, expressed as Ki, was 0.09 ± 0.01 nM and the hA1/hA2A ratio is recorded as 0.00177.

In turn, `CCCn1c(=S)sc2c(=N)n(NC(N)=O)cnc21` [Compound 16] showed a melting point of 220 °C. Further, the cAMP concentration in data set [1] is recorded as 0.14 nM. In data set [3] (setting [4]), the Ki (as a rule, a dissociation constant, usually derived from enzyme kinetics or from competition with a known ligand) stood at 2.8 ± 0.8 nM. In addition, in data set [2], the “selectivity over A1 adenosine receptor” value was 766 fold and the hA1/hA2A ratio is recorded as 736.84. Besides, the Ki in data set [2] (setting [5]) was 0.0038 ± 0.001 nM.

Molecule `CCCCn1c(=S)sc2c(=N)n(NC(N)=O)cnc21` [Compound 17, (7-Imino-3-butyl-2-thioxo-3,7-dihydro-2H-thiazolo[4,5-d]pyrimidin-6-yl)-urea] displayed a melting point of 222 °C. Also, in data set [1], the cAMP concentration is reported as 0.083 nM. The molecule further yielded a Ki in data set [3] of 1.04 ± 0.84 nM. Also, in data set [2], the Ki amounted to 0.089 ± 0.01 nM and the hA1/hA2A ratio is reported as 11.685.

With `C=CCn1c(=S)sc2c(=N)n(NC(N)=O)cnc21` [Compound 18], the melting point came to 202 °C. In addition, the cAMP concentration in data set [1] amounted to 0.08 nM. Further, the Ki in data set [3] came out at 0.47 ± 0.1 nM. In data set [2], the affinity, expressed as Ki, was 0.092 ± 0.01 nM and the hA1/hA2A ratio was determined as 5.11.

Consider `N=c1c2sc(=S)n(-c3ccccc3)c2ncn1NC(N)=O` [Compound 19, (7-Imino-3-phenyl-2-thioxo-3,7-dihydro-2H-thiazolo[4,5-d]pyrimidin-6-yl)-urea], for which the melting point came out at 225 °C. Moreover, the cAMP concentration in data set [1] is listed as 0.078 nM. Moreover, the affinity in data set [3] corresponds to a Ki of 1.5 ± 1.1 nM. Also, in data set [2], the affinity corresponds to a Ki of 0.063 ± 0.008 nM and the hA1/hA2A ratio was 23.81.

As for `N=c1c2sc(=S)n(-c3ccc(I)cc3)c2ncn1NC(N)=O` [Compound 20, (3-p-iodophenyl-7-imino-2-thioxo-3,7-dihydro-2H-thiazolo[4,5-d]pyrimidin-6-yl)-urea], the melting point is 235 °C. Further, the cAMP concentration in data set [1] is given as 0.076 nM. The molecule also showed a Ki in data set [3] of 2.5 ± 1.1 nM. Moreover, in data set [2], the Ki is 0.017 ± 0.01 nM, the “selectivity over A1 adenosine receptor” value amounted to 144 fold and the hA1/hA2A ratio was determined as 147.06.

For the molecule `N=c1c2sc(=S)n(Cc3ccccc3)c2ncn1NC(N)=O` [Compound 21, (3-Benzyl-7-imino-2-thioxo-3,7-dihydro-2H-thiazolo[4,5-d]pyrimidin-6-yl)-urea], the melting point was 190 °C. Further, in data set [1], the cAMP concentration was 0.067 nM. The affinity in data set [3] corresponds to a Ki of 0.14 ± 0.086 nM. In addition, in data set [2], the Ki was 0.023 ± 0.014 nM and the hA1/hA2A ratio came out at 6.09.

The molecule `CCn1c(=S)sc2c(=N)n(NC(=O)c3ccco3)cnc21` [Compound 22, Furan-2-carboxylic acid (3-ethyl-7-imino-2-thioxo-3,7-dihydro-2H-thiazolo[4,5-d]pyrimidin-6-yl)-amide] displayed a melting point of 226 °C. Besides, in data set [1], the cAMP concentration was 0.12 nM. For the same molecule, in data set [3], affinity was put at a Ki of 0.016 ± 0.01 nM. In data set [2], affinity was put at a Ki of 1.2 ± 1.1 nM and the hA1/hA2A ratio came out at 0.0133.

`CCCn1c(=S)sc2c(=N)n(NC(=O)c3ccco3)cnc21` [Compound 23, Furan-2-carboxylic acid (7-imino-3-propyl-2-thioxo-3,7-dihydro-2H-thiazolo[4,5-d]pyrimidin-6-yl)-amide] gave a melting point of 206 °C. For the same molecule, in data set [1], the cAMP concentration is reported as 0.092 nM. The molecule also displayed an inhibition constant Ki in data set [3] of 0.087 ± 0.05 nM. For the same molecule, in data set [2], the Ki came out at 0.024 ± 0.01 nM and the hA1/hA2A ratio is listed as 3.625.

Regarding `CCCCn1c(=S)sc2c(=N)n(NC(=O)c3ccco3)cnc21` [Compound 24, Furan-2-carboxylic acid (3-butyl-7-imino-2-thioxo-3,7-dihydro-2H-thiazolo[4,5-d]pyrimidin-6-yl)-amide], the melting point turned out to be 210 °C. The cAMP concentration in data set [1] is 0.06 nM. The inhibition constant (Ki) in data set [3] was 0.0053 ± 0.001 nM. Also, in data set [2], the affinity, expressed as Ki, was 0.029 ± 0.01 nM and the hA1/hA2A ratio is recorded as 0.183.

`N=c1c2sc(=S)n(-c3ccccc3)c2ncn1NC(=O)c1ccco1` [Compound 26, Furan-2-carboxylic acid (7-imino-3-phenyl-2-thioxo-3,7-dihydro-2H-thiazolo[4,5-d]pyrimidin-6-yl)-amide] gave a melting point of 228 °C. The cAMP concentration in data set [1] is reported as 0.048 nM. Further, in data set [3], the Ki worked out at 0.0085 ± 0.001 nM. For the same molecule, in data set [2], the Ki is 0.33 ± 0.75 nM and the hA1/hA2A ratio came out at 0.026.

For the molecule “Furan-2-carboxylic acid (7-imino-3-propenyl-2-thioxo-3,7-dihydro-2H-thiazolo[4,5-d]pyrimidin-6-yl)-amide [Compound 25]”, the cAMP concentration in data set [1] is given as 0.084 nM. Besides, the Ki in data set [3] (setting [4]) was found to be 0.59 ± 0.11 nM; in data set [2] (setting [5]), 0.17 ± 0.1 nM. For the same molecule, the hA1/hA2A ratio in data set [2] was 3.47.
